Results: publication PMC12629158, “Cytotoxic Activity of Opopanax hispidus (Friv.) Griseb.: Characterization of a New Chalcone‐type Compound” (Chemistry & Biodiversity, 2025)
Converted amounts (≈) assume the structure as drawn. “Also recorded” adds a separate entry of the source. Where two headings read alike, the source gives them in different places.

Columns and labels:
[1] = system: MCF‐7 cells; parameters: method as in earlier work; settings: isolated from Sansevieria cylindrica; cited from earlier work
[2] = system: A549; assay: MTT cytotoxicity assay, A549; type: cell-based, human; settings: for antiproliferative effect of isolated compounds (in words): A549 lung cancer cells, tested concentrations 0.5–50 µM; for IC50: Homo sapiens, A549, 48 h, MTT, 48 h, read-out: IC50 ± SEM, A549
Method: (§1) Adenocarcinomic human alveolar basal epithelial cell line (A549), human cervical cancer cell line (HeLa), human breast cancer cell line (MCF‐7), human hepatocellular carcinoma cell line (HepG2), and human bronchial epithelial cell line (BEAS‐2B) were used for the cytotoxicity test panel of crude extract. […] Therefore, A549 was used in further activity‐guided fractionation and isolation studies. The cell lines were cultured in Dulbecco's Modified Eagle Medium (DMEM) supplemented with 10% fetal bovine serum (FBS), 1% L‐glutamine, and 1% penicillin‐streptomycin. Cells were maintained in an incubator at 37°C under 5% CO2.
(§2) MTT assay was used to determine the cytotoxic activity of the crude extract, subextracts, main fractions, and isolated compounds. MTT assay, called the “gold standard” of cell viability tests, is based on measuring metabolic activity. The cells reaching sufficient confluence were counted and plated in 96‐well plates (6 × 10^3 cells/well). After 24 h, cells were treated with five concentrations of the extracts (1–100 µg/mL), main fractions (1–100 µg/mL), or pure compounds (0.5–50 µM) in DMSO. Doxorubicin (10/3/1/0.3 µM) was used as a positive control. The plates were incubated with test materials for 48 h. After treatment, the supernatant was removed, and fresh medium and MTT solution (1 g/L in PBS) were added to each well. The cells were incubated for three h at 37°C. The resulting formazan crystals were dissolved in DMSO, and finally, the absorbance was detected at 570 nm using a spectrophotometer (SpectraMax i3x; Molecular Devices, San Jose, CA, USA). All data were collected from three independent experiments, and at least n = 6 data points were obtained. IC50 values were calculated as µg/mL for extracts or fractions and as µM for pure compounds.

[3] = system: Beas‐2B; assay: MTT cytotoxicity assay, Beas‐2B healthy cell line; type: cell-based, human; settings: for IC50: Homo sapiens, BEAS-2B, 48 h, MTT, read-out: IC50 ± SEM, Beas‐2B
Method: as §1, §2

[4] = system: A549; assay: Selectivity index (IC50 non‐cancerous cells / IC50 cancerous cells); type: cell-based, human; settings: IC50 Beas‐2B / IC50 A549
Method: The selectivity index (SI), which indicates the selectivity between cancer and normal cells, was calculated. The compounds with an SI greater than 1 are more likely to inhibit cancer cells than non‐cancerous cells. SI values were calculated by the formula of [(IC50 values of non‐cancerous cells)/(IC50 values of cancerous cells)].

[5] = isolated compounds 0.5–50 µM (Table 4)
[6] = doxorubicin positive control (Table 2 footnote)
[7] = doxorubicin positive control (Table 3 footnote)

Q: Which “IC50, cytotoxic effect against MCF‐7 cells” value [1] does the source give for COc1c(O)ccc(C(=O)C(CO)Cc2ccc3c(c2)OCO3)c1O (stereo not shown) [2′,4′‐dihydroxy‐3′‐methoxy‐3,4‐methylenedioxy‐8‐hydroxymethylene dihydrochalcone] here?
A: 34 µg/mL (≈ 98.2 µM)

Q: Which “antiproliferative effect of isolated compounds (in words)” value (“antiproliferative effect” for short) [2] does the source give for O=C(O)c1cc2ccc(=O)oc2cc1O [Compound 1, umbelliferone 6‐carboxylic acid] here?
A: did not show an antiproliferative effect; also recorded: did not show antiproliferative activity

Q: What about the IC50 [2, 5] of the same compound?
A: > 50000 nM

Q: And the IC50 [3, 5]?
A: > 50000 nM

Q: Which results are given for O=c1ccc2ccc(O)cc2o1 [Compound 2, umbelliferone]?
A: antiproliferative effect of isolated compounds (in words) [2]: did not show an antiproliferative effect; also recorded: did not show antiproliferative activity; IC50 [2, 5]: > 50000 nM; IC50 [3, 5]: > 50000 nM

Q: Which “SI (selectivity index)” value ([4]; Table 4) does the source give for COc1cc(O)c(C(=O)C[C@H](O)c2ccc(O)c(CC=C(C)C)c2)c(O)c1 [Compound 3, 2',6'‐dihydroxy‐4'‐methoxy‐3''‐(ɤ,ɤ‐dimethylallyl)‐4''‐hydroxy β‐hydroxydihydrochalcone] here?
A: 0.87

Q: And the “antiproliferative effect” value [2]?
A: significant activity

Q: And the IC50 [2, 5]?
A: 13700 ± 800 nM

Q: And the IC50 [3, 5]?
A: 12000 ± 1500 nM

Q: What about the “cytotoxicity against normal cells compared with doxorubicin (in words)” value ([3]; normal cells (Beas‐2B)) of the same compound?
A: lower cytotoxicity against normal cells than doxorubicin

Q: With CC(C)(O)[C@H]1Cc2cc3ccc(=O)oc3cc2O1 [Compound 4, nodakenetin] as the compound, how does the “antiproliferative effect” value [2] read?
A: did not show an antiproliferative effect; also recorded: did not show antiproliferative activity

Q: What about the IC50 [2, 5] of the same compound?
A: > 50000 nM

Q: What about the IC50 [3, 5] of the same compound?
A: > 50000 nM

Q: For COc1cccc2c1C(=O)c1c(O)c3c(c(O)c1C2=O)C[C@@](O)(C(=O)CO)C[C@@H]3O[C@H]1C[C@H](N)[C@H](O)[C@H](C)O1 [Dox, doxorubicin, reference compound], which “SI (selectivity index)” value ([4]; Table 3) is on record?
A: 0.12

Q: What about the IC50 [2, 6] of the same compound?
A: 820 ± 130 nM

Q: And the IC50 [2, 7]?
A: 590 ± 50 nM

Q: What about the IC50 [2, 5] of the same compound?
A: 590 ± 50 nM

Q: And the IC50 [3, 6]?
A: 340 ± 20 nM

Q: What about the IC50 [3, 7] of the same compound?
A: 70 ± 17 nM

Q: What about the IC50 [3, 5] of the same compound?
A: 70 ± 17 nM
